Measured values from ChEMBL document CHEMBL1145379 (J Med Chem, 2007).

Assays:
Prothrombin = Prothrombin (Homo sapiens, UniProt P00734); test: Inhibition of human F2a; conditions: read-out: Ki app
Plasma = test: Anticoagulant potency in human plasma assessed as concentration for doubling of prothrombin time; type: functional
Coagulation factor X = Coagulation factor X (Homo sapiens, UniProt P00742); test: Inhibition of human F10a; conditions: read-out: Ki app
Coagulation factor X, sequence (P00742 41-179 limits assumed): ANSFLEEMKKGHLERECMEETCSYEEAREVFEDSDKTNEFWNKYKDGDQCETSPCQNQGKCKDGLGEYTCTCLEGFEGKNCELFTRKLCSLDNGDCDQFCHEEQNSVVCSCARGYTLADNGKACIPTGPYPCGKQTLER
Coagulation factor X, sequence (P00742 235-488 limits assumed): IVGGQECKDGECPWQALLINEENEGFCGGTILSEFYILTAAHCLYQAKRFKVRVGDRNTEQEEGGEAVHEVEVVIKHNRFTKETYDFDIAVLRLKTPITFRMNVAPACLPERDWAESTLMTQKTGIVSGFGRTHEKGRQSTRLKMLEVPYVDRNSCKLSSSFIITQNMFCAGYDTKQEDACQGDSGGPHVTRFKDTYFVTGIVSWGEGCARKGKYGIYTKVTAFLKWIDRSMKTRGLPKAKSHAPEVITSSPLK

| SMILES | Ki (Prothrombin) [nM] | Activity (Plasma) [µM] | Ki (Coagulation factor X) [nM] |
| --- | --- | --- | --- |
| COc1cc(Cl)cc(C(=O)Nc2ccc(Cl)cc2)c1NC(=O)c1scc(CN2CCN(C)CC2)c1Cl | 1300 | 4.2 | 0.43 |
| COc1cc(Cl)cc(C(=O)Nc2ccc(Cl)cn2)c1NC(=O)c1scc(CN2CCOCC2)c1Cl | 1400 | 4.9 | 1.4 |
| COCCN(Cc1csc(C(=O)Nc2c(OC)cc(Cl)cc2C(=O)Nc2ccc(Cl)cn2)c1Cl)C1=NCCO1 | 2000 | 1.1 | 0.26 |
| COc1cc(Cl)cc(C(=O)Nc2ccc(Cl)cn2)c1NC(=O)c1scc(CN(C)C(=O)NCCO)c1Cl | 360 | 4.1 | 0.05 |
| COc1cc(Cl)cc(C(=O)Nc2ccc(Cl)cn2)c1NC(=O)c1scc(CN(C)CC(C)(C)O)c1Cl | 1100 | 5.3 | 0.71 |
| COc1cc(Cl)cc(C(=O)Nc2ccc(Cl)cn2)c1NC(=O)c1scc(CN(C)C(=O)NCCC(=O)O)c1Cl | 630 | 7 | 0.022 |
| COc1cc(Cl)cc(C(=O)Nc2ccc(Cl)cn2)c1NC(=O)c1scc(CN(C)S(C)(=O)=O)c1Cl | 340 | 2.2 | 0.045 |
| COc1cc(Cl)cc(C(=O)Nc2ccc(Cl)cn2)c1NC(=O)c1scc(CN(C)C2=NCC(C)O2)c1Cl (configuration not stated) | 410 | 1.2 | 0.12 |
| COc1cc(Cl)cc(C(=O)Nc2ccc(Cl)cn2)c1NC(=O)c1scc(CN(C)CCCO)c1Cl | 1100 | 1.5 | 0.18 |
| COc1cc(Cl)cc(C(=O)Nc2ccc(Cl)cn2)c1NC(=O)c1scc(CN(C)C(=O)NCCN2CCCC2)c1Cl | 140 | 1.1 | 0.036 |
| COc1cc(Cl)cc(C(=O)Nc2ccc(Cl)cn2)c1NC(=O)c1scc(CN(CC(F)(F)F)C2=NCCO2)c1Cl | > 5000 | 28 | 2.2 |
| COc1cc(Cl)cc(C(=O)Nc2ccc(Cl)cn2)c1NC(=O)c1scc(CN2CC(=O)NC2=N)c1Cl | 340 | 3.3 | 0.034 |
| CCNCc1csc(C(=O)Nc2c(OC)cc(Cl)cc2C(=O)Nc2ccc(Cl)cn2)c1Cl | 2600 | 2.2 | 0.4 |
| COc1cc(Cl)cc(C(=O)Nc2ccc(Cl)cn2)c1NC(=O)c1scc(CN2CCOC2=N)c1Cl | 1100 | 0.26 | ≤ 0.01 |
| COc1cc(Cl)cc(C(=O)Nc2ccc(Cl)cn2)c1NC(=O)c1scc(CN)c1Cl | > 5000 | 4.2 | 1 |
| COc1cc(Cl)cc(C(=O)Nc2ccc(Cl)cn2)c1NC(=O)c1scc(Cn2ccnc2C)c1Cl | 440 | 1.4 | ≤ 0.01 |
| COc1cc(Cl)cc(C(=O)Nc2ccc(Cl)cn2)c1NC(=O)c1scc(CN2CCN=C2C)c1Cl | 3300 | 0.32 | ≤ 0.01 |
| COc1cc(Cl)cc(C(=O)Nc2ccc(Cl)cn2)c1NC(=O)c1scc(CN2CCN=C2SC)c1Cl | 2200 | 0.53 | 0.004 |
| COc1cc(Cl)cc(C(=O)Nc2ccc(Cl)cn2)c1NC(=O)c1scc(CN(C)C(=N)N)c1Cl | 630 | 0.4 | ≤ 0.01 |
| COc1cc(Cl)cc(C(=O)Nc2ccc(Cl)cn2)c1NC(=O)c1scc(CN2CCCC2)c1Cl | 1400 | 1.6 | 0.52 |
| CCNc1nccn1Cc1csc(C(=O)Nc2c(OC)cc(Cl)cc2C(=O)Nc2ccc(Cl)cn2)c1Cl | 1100 | 1.8 | 0.005 |
| COc1cc(Cl)cc(C(=O)Nc2ccc(Cl)cn2)c1NC(=O)c1scc(CN(C)CCN2CCCC2)c1Cl | 190 | 0.24 | 0.019 |

| SMILES | Ki (Prothrombin) [nM] | Activity (Plasma) [µM] | Ki (Coagulation factor X) [nM] |
| --- | --- | --- | --- |
| COc1cc(Cl)cc(C(=O)Nc2ccc(Cl)cn2)c1NC(=O)c1scc(CN2C=NCC2)c1Cl | 3300 | 0.26 | 0.004 |
| COc1cc(Cl)cc(C(=O)Nc2ccc(Cl)cn2)c1NC(=O)c1scc(CN(C)CCCN(C)C)c1Cl | 300 | 0.24 | 0.024 |
| COc1cc(Cl)cc(C(=O)Nc2ccc(Cl)cn2)c1NC(=O)c1scc(Cn2ccnc2)c1Cl | 510 | 2 | 0.022 |
| COc1cc(Cl)cc(C(=O)Nc2ccc(Cl)cn2)c1NC(=O)c1scc(Cn2ccnc2N)c1Cl | 3500 | 0.77 | 0.006 |
| COc1cc(Cl)cc(C(=O)Nc2ccc(Cl)cn2)c1NC(=O)c1scc(CN(C)C(N)=O)c1Cl | 340 | 2.6 | 0.026 |
| CCNC(=O)N(C)Cc1csc(C(=O)Nc2c(OC)cc(Cl)cc2C(=O)Nc2ccc(Cl)cn2)c1Cl | 450 | 5.8 | 0.02 |
| COc1cc(Cl)cc(C(=O)Nc2ccc(Cl)cn2)c1NC(=O)c1scc(CN(C)C2=NCCC2)c1Cl | 970 | 0.4 | 0.004 |
| CCN(Cc1csc(C(=O)Nc2c(OC)cc(Cl)cc2C(=O)Nc2ccc(Cl)cn2)c1Cl)C1=NCCO1 | 470 | 0.57 | 0.012 |
| COc1cc(Cl)cc(C(=O)Nc2ccc(Cl)cn2)c1NC(=O)c1scc(CNC(C)C)c1Cl | 5400 | – | 1.4 |
| COc1cc(Cl)cc(C(=O)Nc2ccc(Cl)cn2)c1NC(=O)c1scc(CN2CCNC2=N)c1Cl | 1500 | 0.27 | ≤ 0.01 |
| COc1cc(Cl)cc(C(=O)Nc2ccc(Cl)cn2)c1NC(=O)c1scc(CN(C2=NCCO2)C(C)(C)C)c1Cl | 1700 | – | 0.12 |
| CCN(CC)Cc1csc(C(=O)Nc2c(OC)cc(Cl)cc2C(=O)Nc2ccc(Cl)cn2)c1Cl | 1500 | 2.4 | 0.32 |
| COc1cc(Cl)cc(C(=O)Nc2ccc(Cl)cn2)c1NC(=O)c1scc(CN(C)c2ncc[nH]2)c1Cl | 860 | 1.8 | 0.02 |
| COc1cc(Cl)cc(C(=O)Nc2ccc(Cl)cn2)c1NC(=O)c1scc(CN(C)C2=NCCS2)c1Cl | 100 | 1.8 | 0.024 |
| COc1cc(Cl)cc(C(=O)Nc2ccc(Cl)cn2)c1NC(=O)c1scc(CN(C)C(C)=N)c1Cl | 920 | 0.25 | ≤ 0.01 |
| COc1cc(Cl)cc(C(=O)Nc2ccc(Cl)cn2)c1NC(=O)c1scc(CN(C)C2=NCCCO2)c1Cl | 160 | 0.22 | 0.012 |
| COc1cc(Cl)cc(C(=O)Nc2ccc(Cl)cn2)c1NC(=O)c1scc(CN(C)C2=NC(=O)CO2)c1Cl | 90 | 2.2 | 0.026 |
| COc1cc(Cl)cc(C(=O)Nc2ccc(Cl)cn2)c1NC(=O)c1scc(CN(C)CC(C)O)c1Cl (configuration not stated) | 2100 | 1.5 | 0.4 |
| COc1cc(Cl)cc(C(=O)Nc2ccc(Cl)cn2)c1NC(=O)c1scc(CN(C)c2ncco2)c1Cl | 60 | 4.2 | 0.059 |
| COc1cc(Cl)cc(C(=O)Nc2ccc(Cl)cn2)c1NC(=O)c1scc(CN(C)CC(O)CO)c1Cl (configuration not stated) | 1200 | 3.2 | 0.26 |
| COc1cc(Cl)cc(C(=O)Nc2ccc(Cl)cn2)c1NC(=O)c1scc(CN2CCC(O)CC2)c1Cl | 770 | 3.2 | 2.2 |
